These results are taken from patent US6432978B1, “SF2809-I,II,III,IV,V and VI substances exhibiting chymase-inhibiting activities” (Meiji Seika Kaisha, Ltd., priority 1998, dated 2002).

SMILES strings stand for the structures.

The target of one data set is T1, human chymase (Homo sapiens, UniProt P23946).
T1 construct: made in house; host or cells: insect cells (Tn5) infected with recombinant baculovirus
T1 sequence (P23946 22-247): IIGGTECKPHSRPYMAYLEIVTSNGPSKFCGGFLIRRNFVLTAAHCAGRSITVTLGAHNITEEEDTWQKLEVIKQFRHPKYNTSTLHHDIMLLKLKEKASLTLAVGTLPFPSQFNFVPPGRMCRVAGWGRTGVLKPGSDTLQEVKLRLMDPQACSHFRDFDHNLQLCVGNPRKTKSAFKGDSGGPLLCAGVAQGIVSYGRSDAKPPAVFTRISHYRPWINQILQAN
In words: Determination of chymase-inhibiting activity (Test Example 1). The conditions noted are these: activated human recombinant chymase; substrate succinyl-alanyl-histidyl-prolyl-phenylalanyl-para-nitroanilide; buffer pH 8.0; room temperature, 5 minutes; absorbance at 405 nm; read-out: 50% inhibitory concentrations (IC50) against the human chymase. In kind it is biochemical. The method, then:
In this Example, the chymase-inhibiting activity of SF2809 substances was determined as described below.
A human recombinant chymase was prepared in accordance with the method of Urata et al's report (Urata et al., J. Biol. Chem., Vol. 266, p.17173, 1991). Thus, cultivation was made of insect cells (Tn5) which had been infected with recombinant baculovirus containing therein such cDNA that encodes the human chymase. The resulting culture of the insect cells was filtered and the resultant supernatant was treated with Heparin-sepharose (Pharmacia's product) to recover the chymase. The chymase so recovered was then purified. Then, the purified chymase was activated in accordance with the method of Murakami et al's report (Murakami et al, J. Biol. Chem., Vol. 270, p.2218, 1991), after which the activated chymase was purified with Heparin-sepharose to afford an activated type of human chymase.
To 50 μl of a buffer A (comprising 0.5˜3.0 M NaCl, 50 mM tris hydrochloric acid, pH 8.0) which contained 1˜5 ng of the active-type of human chymase as prepared in (1) above, there was added 2 μl of a solution in dimethylsulfoxide (DMSO) of an SF2809 substance as the test substance. Then, to the resulting mixture, there was added 50 μl of a buffer A which contained 0.5 mM of succinyl-alanyl-histidyl-prolyl-phenylalanyl-para-nitroanilide (Buckem's product) as a substrate. The resultant admixture was incubated at room temperature for 5 minutes. The change in the absorbance at 405 nm of the reaction solution was measured with passage of the incubation time, thereby to examine the chymase-inhibiting activity of the SF2809 substance under test.

Data set [1] is described as follows: Solubility (physicochemical properties). Conditions: in methanol, ethyl acetate, dimethylsulfoxide, chloroform, hexane and water; result in words.

Take `CC(=O)NCCc1c(Cc2c(O)c3ccccc3n(C)c2=O)[nH]c2ccccc12` [SF2809-I substance]: the IC50 on human chymase stood at 7300 nM. Besides, in data set [1], the Solubility entry was “Soluble in methanol, ethyl acetate and dimethylsulfoxide; sparingly soluble in chloroform; and insoluble in hexane and water”.

`CC(=O)NCCc1c(C(c2ccc(O)cc2)c2c(O)c3ccccc3n(C)c2=O)[nH]c2ccccc12` (stereo not drawn) [SF2809-II substance]: the IC50 at human chymase worked out at 41 nM. In addition, the Solubility result in data set [1] was “Soluble in methanol, ethyl acetate and dimethylsulfoxide; sparingly soluble in chloroform; and insoluble in hexane and water”.

In the case of `Cn1c(=O)c(Cc2[nH]c3ccccc3c2CCO)c(O)c2ccccc21` [SF2809-III substance], the IC50 on human chymase worked out at 2100 nM. In data set [1], the Solubility entry was “Soluble in methanol, ethyl acetate and dimethylsulfoxide; sparingly soluble in chloroform; and insoluble in hexane and water”.

For `Cn1c(=O)c(C(c2ccc(O)cc2)c2[nH]c3ccccc3c2CCO)c(O)c2ccccc21` (stereo not drawn) [SF2809-IV substance], at human chymase, the IC50 is 81 nM. In addition, the Solubility result in data set [1] is “Soluble in methanol, ethyl acetate and dimethylsulfoxide; sparingly soluble in chloroform; and insoluble in hexane and water”.

For `CC(=O)NCCc1c(C(c2ccccc2)c2c(O)c3ccccc3n(C)c2=O)[nH]c2ccccc12` (stereo not drawn) [SF2809-V substance], the IC50 at human chymase came out at 43 nM. Further, the Solubility entry in data set [1] was “Soluble in methanol, ethyl acetate, dimethylsulfoxide and chloroform; and insoluble in hexane and water”.

As to `Cn1c(=O)c(C(c2ccccc2)c2[nH]c3ccccc3c2CCO)c(O)c2ccccc21` (stereo not drawn) [SF2809-VI substance], the IC50 on human chymase is 14 nM. The Solubility result in data set [1] was “Soluble in methanol, ethyl acetate, dimethylsulfoxide and chloroform; and insoluble in hexane and water”.
